# “Also recorded” adds a separate entry of the source. Like-named read-outs stand apart in the source and are kept apart here.
# Key:
# [1] = tested on: voltage-dependent L-type calcium channels; settings: GH4C1 cells, values determined by Harper; cited from earlier work
# SOC channels = settings: HL-60 cells, values determined by Harper; cited from earlier work
# rat T/HS = assay: Rat T/HS, post-shock treatment: lung MPO and Evans Blue dye leak; assay type: in vivo; settings: IP after return of 10% of shed blood, estimated plasma level 30 μM; 3 hours after reperfusion; FIG. 1
# Description: Male rats underwent standard T/HS. 4-[4-(4-Chloro-phenyl)-thiazol-2-ylamino]-phenol or N-propargyl-nitrendipine (estimated plasma level 30 μM for each) or vehicle were administered IP after the return of 10% of total shed blood to the animal. Different groups of animals (n=6/group) were sacrificed 3 hours after reperfusion for bronchoalveolar lavage and Evan's Blue dye leak assay, or to harvest the lungs for MPO assays (FIG. 1).
# N=6 animals per condition, *p<0.01 for inter-group comparisons.
# [2] = tested on: rat traumatic, hemorrhagic shock model; assay: Rat traumatic, hemorrhagic shock model, treatment prior to shock
# PMN = assay: Rat T/HS, post-shock treatment: PMN CD11b and respiratory burst by flow cytometry; assay type: in vivo; settings: IP post-treatment, whole blood 3 hrs post reperfusion; for PMN CD11b expression: FIG. 2; for PMN priming for respiratory burst initiated by PMA: FIG. 3
# Description: Male rats underwent T/HS with or without 4-[4-(4-chloro-phenyl)-thiazol-2-ylamino]-phenol or N-propargyl-nitrendipine administered IP in post-treatment as above. Small (200 μL) whole blood samples removed prior to shock and 3 hrs post reperfusion were assayed for PMN CD11b (FIG. 2) and respiratory burst (FIG. 3) by flow cytometry. […] Left histogram, preshock; Right histogram, 3 h post-shock; Center (dark) histogram, 3 h post-shock PMN from animal treated with the indicated drug during resuscitation. Representative flow histograms, n=3-4 per condition. P<0.01, ANOVA/Tukey's test for all inter-group comparisons. […] Representative flow histograms are arranged as in FIG. 2, n=3-4 per condition. P<0.01 by ANOVA/Tukey's test for all inter-group comparisons.
# p38 MAP kinase = assay: Rat T/HS, post-shock treatment: Western blot of PMN phosphorylated p38 MAP kinase; assay type: in vivo; settings: IP post-treatment; PMN lysates 3 hours after T/HS; FIG. 4
# Description: The phosphorylation of p38-mitogen associated protein kinase [“p38 MAP kinase”] in the presence of inflammatory stimuli is a key cellular mechanism involved in irreversible neutrophil activation and post-shock organ injury. Male rats underwent T/HS with or without 4-[4-(4-chloro-phenyl)-thiazol-2-ylamino]-phenol or N-propargyl-nitrendipine administered IP in post-treatment as above. At the end of 3 hours post reperfusion, animals were sacrificed by exsanguination. PMN were isolated. Whole cell lysates were probed using specific antibodies for phosphorylated p38 MAP kinase. SOC inhibition via either strategy led to diminished activation. Lysates of rat PMN were sampled 3 hours after T/HS. Animals were treated with 4-[4-(4-chloro-phenyl)-thiazol-2-ylamino]-phenol or vehicle (DMSO) at the time of resuscitation. Positive controls (+) were rat PMN activated in vitro with fMLP. […] Thus SIP/SOC inhibition diminishes PMN p38 MAP kinase activation by T/HS.
# [3] = assay type: in vivo
# Description: In all the above experiments, rats undergoing T/HS were treated with SKI-2 or N-propargyl-nitrendipine given as an IP bolus just after the BP nadir. At this point, MAP has risen only from 30-40 to approximately 50 mmHg.
# PMN SOC = settings: cited from earlier work
# [4] = IP bolus just after the BP nadir
structure (smiles),measurement,setting,value
COC(=O)C1=C(C)N(C)C(C)=C(C(=O)OC)C1c1cccc([N+](=O)[O-])c1 [Compound 30],IC50,[1],2000 nM
same,IC50,SOC channels,2800 ± 30 nM
CCOC(=O)C1=C(C)N(C)C(C)=C(C(=O)OC)C1c1cccc([N+](=O)[O-])c1 (stereo not shown) [Compound 32],IC50,[1],1300 ± 300 nM
same,IC50,SOC channels,2600 ± 1100 nM
CCOC(=O)C1=C(C)N(CC)C(C)=C(C(=O)OC)C1c1cccc([N+](=O)[O-])c1 (stereo not shown) [Compound 33],IC50,[1],2300 ± 400 nM
same,IC50,SOC channels,6000 nM
C=CCN1C(C)=C(C(=O)OC)C(c2cccc([N+](=O)[O-])c2)C(C(=O)OCC)=C1C (stereo not shown) [Compound 34],IC50,[1],3800 ± 1800 nM
same,IC50,SOC channels,6800 ± 1800 nM
"C#CCN1C(C)=C(C(=O)OC)C(c2cccc([N+](=O)[O-])c2)C(C(=O)OCC)=C1C (stereo not shown) [Compound 35, N-propargyl-nitrendipine]",Capillary-alveolar leakage (Evans Blue dye leak),rat T/HS,prevented PMN accumulation and subsequent capillary-alveolar leakage; also recorded: yielded the same effects
same,Pulmonary PMN infiltration/accumulation (MPO assay),rat T/HS,prevented PMN accumulation; also recorded: yielded the same effects
same,Attenuation of lung injury,"[2]; pre-treatment IP, target concentration 30 μm",Identical attenuation of lung injury as in Example 1
same,Lung PMN infiltration by myeloperoxidase (MPO) assay,"[2]; pre-treatment IP, data not shown",diminished lung PMN infiltration
same,IC50,[1],2100 ± 200 nM
same,PMN CD11b expression,PMN,decreased CD11b expression almost to the level seen prior to shock
same,PMN priming for respiratory burst initiated by PMA,PMN,decreased PMN priming for respiratory burst initiated by PMA (phorbol 12-myristate 13-acetate) almost to the levels seen prior to shock
same,PMN p38 MAP kinase phosphorylation/activation,p38 MAP kinase,Attenuation of p38 MAP Kinase phosphorylation and activation was also seen
same,IC50,SOC channels,1700 ± 1300 nM
same,Episodes of hypotension,[3]; [4],No episodes of hypotension were seen
same,Survival of the acute shock phase,[3]; [4],all animals survived the acute shock phase
"Oc1ccc(Nc2nc(-c3ccc(Cl)cc3)cs2)cc1 [SKI-2, 4-[4-(4-Chloro-phenyl)-thiazol-2-ylamino]-phenol]",Capillary-alveolar leakage (Evans Blue dye leak),rat T/HS,prevented PMN accumulation and subsequent capillary-alveolar leakage; also recorded: inhibits PMN mediated lung injury
same,Pulmonary PMN infiltration/accumulation (MPO assay),rat T/HS,prevented PMN accumulation; also recorded: inhibits PMN mediated lung injury
same,CD11b (MFI),"[2]; PMN activation by flow cytometry, IP at laparotomy prior to shock, estimated plasma level 30 μM, 3 hours after resuscitation",225 ± 18 MFI
same,Evans Blue (%),"[2]; lung injury as % Evans Blue dye leak, IP prior to shock, estimated plasma level 30 μM, 3 hours after resuscitation",3.8 ± 1.7 %
same,Hemodynamic effects,[2]; pre-treatment IP,No unexpected hemodynamic effects were noted
same,Phlebotomy volumes,"[2]; treatment vs placebo groups, pre-treatment IP",identical in the treatment and placebo groups
same,PMN CD11b expression,PMN,decreased CD11b expression almost to the level seen prior to shock
same,PMN priming for respiratory burst initiated by PMA,PMN,decreased PMN priming for respiratory burst initiated by PMA (phorbol 12-myristate 13-acetate) almost to the levels seen prior to shock
same,PMN p38 MAP kinase phosphorylation/activation,p38 MAP kinase,attenuation of MAPK activation
same,Episodes of hypotension,[3]; [4],No episodes of hypotension were seen
same,Survival of the acute shock phase,"[3]; rat, in vivo, ip",all animals survived the acute shock phase
"[Gd+3] [gadolinium (Gd3+), gadolinium]",Concentration inhibiting PMN SOC,PMN SOC,low-mid nanomolar concentrations

# — patent publication US20080280866A1, “Method of Treating or Sepsis” (priority 2004, published 2008)
